In ChEMBL document CHEMBL1201862, “PubChem BioAssay data set” (2004):
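48-hour exposure; five concentrations; linearly interpolated endpoints. GI50 marks 50% less growth.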 Activity calls are given as the source filed them. Rule as the data show it: active = GI50 up to about 1.1 µM and inactive = higher.

How the values were obtained:
Assay in all cases: NCI tumour cell line growth inhibition, 48 h
SK-MEL-5 = test system: SK-MEL-5
SR = test system: SR
A498 = test system: A498
LOX IMVI = test system: LOX IMVI
Malme-3M = test system: Malme-3M
HT-29 = test system: HT-29
A549 = test system: A549
HL-60 = test system: HL-60
SF-539 = test system: SF-539
U-251 = test system: U-251
OVCAR-4 = test system: OVCAR-4
ACHN = test system: ACHN
COLO 205 = test system: COLO 205
M14 = test system: M14
KM12 = test system: KM12
NCI-H460 = test system: NCI-H460

Measured: GI50

O=C1OC(=O)c2c1nc1ccccc1c2-c1ccccc1
inactive: SK-MEL-5 > 100 µM | SR > 100 µM | A498 > 100 µM | LOX IMVI > 100 µM | Malme-3M > 100 µM | HT-29 > 100 µM | A549 > 100 µM | HL-60 > 100 µM | SF-539 > 100 µM | U-251 > 100 µM | OVCAR-4 > 100 µM | ACHN > 100 µM | COLO 205 > 100 µM | M14 > 100 µM | KM12 > 100 µM | NCI-H460 > 100 µM

Cc1cccc(C(C)(C)C)c1NC(=O)CCl
inactive: SK-MEL-5 > 100 µM | SR > 100 µM | A498 > 100 µM | LOX IMVI > 100 µM | Malme-3M > 100 µM | HT-29 > 100 µM | A549 > 100 µM | HL-60 > 100 µM | SF-539 > 100 µM | U-251 > 100 µM | OVCAR-4 > 100 µM | ACHN > 100 µM | COLO 205 > 100 µM | M14 > 100 µM | KM12 > 100 µM | NCI-H460 > 100 µM

CC(C)CCCC(C)[C@H]1CCC2[C@H]3C(CC[C@@]21C)[C@@]1(C)CCC=C[C@]12C[C@@H]2[C@@H]3O (some centres undefined)
inactive: SK-MEL-5 > 100 µM | SR > 100 µM | A498 > 100 µM | LOX IMVI > 100 µM | Malme-3M > 100 µM | HT-29 > 100 µM | A549 > 100 µM | HL-60 > 100 µM | SF-539 > 100 µM | U-251 > 100 µM | OVCAR-4 > 100 µM | ACHN > 100 µM | COLO 205 > 100 µM | M14 > 100 µM | KM12 > 100 µM | NCI-H460 > 100 µM

CC(=O)Nc1ccc(C2=N/C(=C\c3ccc(Cl)cc3)C(=O)O2)cc1
inactive: SK-MEL-5 77.8 µM | SR 18.7 µM | A498 > 100 µM | LOX IMVI 18.4 µM | Malme-3M 87.7 µM | HT-29 60.7 µM | A549 > 100 µM | HL-60 30.3 µM | SF-539 > 100 µM | U-251 38.5 µM | OVCAR-4 65 µM | ACHN 27.4 µM | COLO 205 39.2 µM | M14 25.5 µM | KM12 33.1 µM | NCI-H460 69.5 µM

COC(=O)CC1NC(=O)C1C1(C)OCCO1 (centres undefined)
inactive: SK-MEL-5 > 100 µM | SR > 100 µM | A498 > 100 µM | LOX IMVI > 100 µM | Malme-3M > 100 µM | HT-29 > 100 µM | A549 > 100 µM | HL-60 > 100 µM | SF-539 > 100 µM | U-251 > 100 µM | OVCAR-4 > 100 µM | ACHN > 100 µM | COLO 205 > 100 µM | M14 > 100 µM | NCI-H460 > 100 µM
